Where two headings read alike, the source gives them in different places.
Molecular target: T1, human APJ receptor (Homo sapiens, UniProt P35414)
T1 construct: expressed in transfected cells
T1 sequence (P35414 1-380): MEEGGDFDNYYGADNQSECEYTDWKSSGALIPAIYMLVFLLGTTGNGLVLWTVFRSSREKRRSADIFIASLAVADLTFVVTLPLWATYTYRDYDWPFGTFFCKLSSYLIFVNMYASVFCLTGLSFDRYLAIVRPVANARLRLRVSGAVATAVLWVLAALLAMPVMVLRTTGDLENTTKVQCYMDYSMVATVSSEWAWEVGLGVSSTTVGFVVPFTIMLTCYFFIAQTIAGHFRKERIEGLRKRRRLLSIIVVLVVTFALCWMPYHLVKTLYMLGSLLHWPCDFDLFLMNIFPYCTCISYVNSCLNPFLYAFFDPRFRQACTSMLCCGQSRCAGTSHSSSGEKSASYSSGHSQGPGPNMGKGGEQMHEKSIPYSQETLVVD
Assay: Intracellular cAMP accumulation assay (APJ hcAMP, HTRF)
Type: cell-based
Description: Intracellular cAMP Accumulation Assay
HEK293 cells stably expressing human APJ receptor were used to assess the activity of compounds. Cultured cells were detached and resuspended in the cAMP Homogeneous Time-Resolved Fluorescence (HTRF) assay buffer (Cisbio cat; #62AM4PEJ). The assay was performed in 384-well assay plates (Perkin-Elmer; cat #6008289) according to assay protocol provided by the manufacturer. Serial dilutions of a compound together with assay buffer containing […] IBMX and 2 μM forskolin were added to each well containing 5,000 cells and incubated for 30 minutes at room temperature. Subsequently, cAMP D2 reagent was added in the lysis buffer followed by the EuK antibody (Cisbio; cat #62AM4PEJ) and incubated for 60 min. The fluorescence emission ratio was measured using fluorometer. The intracellular cAMP concentrations (compound-stimulated inhibition of forskolin-mediated cAMP production) were calculated by extrapolation from a standard curve using known cAMP concentrations. The EC50 values were obtained by fitting the data to a sigmoidal concentration-response curve with variable slope. The maximal achievable inhibition of forskolin-induced cAMP levels (Ymax) for each compound was expressed as relative percentage of inhibition attained using pyroglutamated apelin-13 ((Pyrl)apelin-13) peptide, which was set to 100%.
The exemplified Examples disclosed below were tested in the APJ in vitro assays described above and were found having human APJ cyclic AMP (hcAMP) activity. Table 1 lists hcAMP EC50 values measured for the following examples. Ranges are as followε: A=0.0-10 nM; B=10.01-100 nM; C=101-500 nM.

[1] = Table 1, HEK293 cells stably expressing human APJ receptor, inhibition of forskolin-mediated cAMP production, read-out: APJ hcAMP EC50
[2] = human APJ, cAMP, potency range class, read-out: APJ cAMP Human EC50
[3] = Table 3, HEK293 cells stably expressing human APJ receptor, read-out: APJ cAMP Human EC50

EC50 [1] [nM] | EC50 [2] [nM] | EC50 [3] [nM] | Structure (SMILES)
10 to 100 | 10 to 100 |  | O=C(NC(CCC(F)(F)F)c1ccccc1)c1ccc(-c2cc(Cl)ccc2-c2nc3ccccc3[nH]2)c(C(=O)O)c1 (racemic) [Example 158, 2′-(1H-Benzo[d]imidazol-2-yl)-5′-chloro-4-((4,4,4-trifluoro-1-phenylbutyl)carbamoyl)-[1,1′-biphenyl]-2-carboxylic acid]
< 10 | < 10 |  | CC(C)CC(NC(=O)c1ccc(-c2cc(Cl)ccc2-c2nc3ccccc3[nH]2)c(C(=O)O)c1)c1ccccc1 (racemic) [Example 210, 2′-(1H-1,3-benzodiazol-2-yl)-5′-chloro-4-[(3-methyl-1-phenylbutyl)carbamoyl]-[1,1′-biphenyl]-2-carboxylic acid]
10 to 100 | 10 to 100 |  | CC(C)(C)CC(NC(=O)c1ccc(-c2cc(Cl)ccc2-c2nc3ccccc3[nH]2)c(C(=O)O)c1)c1ccccc1 (racemic) [Example 212, 2′-(1H-1,3-benzodiazol-2-yl)-5′-chloro-4-[(3,3-dimethyl-1-phenylbutyl)carbamoyl]-[1,1′-biphenyl]-2-carboxylic acid]
10 to 100 | 10 to 100 |  | CCC(NC(=O)c1ccc(-c2cc(Cl)ccc2-c2nc3ccccc3[nH]2)c(C(=O)O)c1)c1ccccn1 (racemic) [Example 213, 2′-(1H-1,3-benzodiazol-2-yl)-5′-chloro-4-{[1-(pyridin-2-yl)propyl]carbamoyl}-[1,1′-biphenyl]-2-carboxylic acid]
10 to 100 | 10 to 100 |  | CCC(NC(=O)c1ccc(-c2cc(Cl)ccc2-c2nc3ccccc3[nH]2)c(C(=O)O)c1)c1ccncc1 (racemic) [Example 214, 2′-(1H-1,3-benzodiazol-2-yl)-5′-chloro-4-{[1-(pyridin-4-yl)propyl]carbamoyl}-[1,1′-biphenyl]-2-carboxylic acid]
< 10 |  | < 10 | CCC[C@@H](NC(=O)c1ccc(-c2c(C)cccc2-c2nc3cc(C(F)(F)F)ccc3[nH]2)c(C(=O)O)c1)c1ccccc1 (single isomer, unassigned) [Example 146]
 |  | 101 to 500 | CCC[C@@H](NC(=O)c1ccc(-c2c(C)cccc2-c2nc3cc(C(F)(F)F)ccc3[nH]2)c(C(=O)O)c1)c1ccccc1 (single isomer, unassigned) [Example 147]
< 10 | < 10 |  | CCCC(NC(=O)c1ccc(-c2c(Cl)cccc2-c2nc3cc(Cl)c(F)cc3[nH]2)c(C(=O)O)c1)C1CCCCC1 (single isomer, unassigned) [Example 161]
< 10 | < 10 |  | CCCC(NC(=O)c1ccc(-c2c(Cl)cccc2-c2nc3ccccc3[nH]2)c(C(=O)O)c1)c1c(C)cc(C)cc1C (single isomer, unassigned) [Example 163]
< 10 | < 10 |  | CCCC(NC(=O)c1ccc(-c2c(Cl)cccc2-c2nc3ccccc3[nH]2)c(C(=O)O)c1)c1ccc(Cl)cc1OC (single isomer, unassigned) [Example 164]
< 10 | < 10 |  | CCCC(NC(=O)c1ccc(-c2c(Cl)cccc2-c2nc3ccccc3[nH]2)c(C(=O)O)c1)c1ccc(F)cc1OC (single isomer, unassigned) [Example 165]
< 10 |  |  | CCCC(NC(=O)c1ccc(-c2c(Cl)cccc2-c2nc3ccccc3[nH]2)c(C(=O)O)c1)c1ccc(Cl)cc1OC (single isomer, unassigned) [Example 166]
< 10 | < 10 |  | CCCC(NC(=O)c1ccc(-c2c(Cl)cccc2-c2nc3ccccc3[nH]2)c(C(=O)O)c1)c1ccncc1 (single isomer, unassigned) [Example 168]
< 10 | < 10 |  | CCCC(NC(=O)c1ccc(-c2c(Cl)cccc2-c2nc3ccccc3[nH]2)c(C(=O)O)c1)c1ccccc1Cl (single isomer, unassigned) [Example 169]
< 10 | < 10 |  | CCCC(NC(=O)c1ccc(-c2c(Cl)cccc2-c2nc3ccccc3[nH]2)c(C(=O)O)c1)c1cccc(F)c1 (single isomer, unassigned) [Example 171]
< 10 | < 10 |  | CCCC(NC(=O)c1ccc(-c2c(Cl)cccc2-c2nc3ccccc3[nH]2)c(C(=O)O)c1)C1CCCCCC1 (single isomer, unassigned) [Example 173]
< 10 | < 10 |  | CCCC(NC(=O)c1ccc(-c2c(Cl)cccc2-c2nc3ccccc3[nH]2)c(C(=O)O)c1)c1ccccn1 (single isomer, unassigned) [Example 175]

EC50 [1] [nM] | EC50 [2] [nM] | EC50 [3] [nM] | Structure (SMILES)
< 10 | < 10 |  | CCC[C@H](NC(=O)c1ccc(-c2c(Cl)cccc2-c2nc3ccccc3[nH]2)c(C(=O)O)c1)c1ccccc1OC(F)(F)F (single isomer, unassigned) [Example 176]
< 10 | < 10 |  | CCC[C@H](NC(=O)c1ccc(-c2c(Cl)cccc2-c2nc3ccccc3[nH]2)c(C(=O)O)c1)C1CCCCC1 (single isomer, unassigned) [Example 177]
< 10 | < 10 |  | CCCC(NC(=O)c1ccc(-c2c(Cl)cccc2-c2nc3ccccc3[nH]2)c(C(=O)O)c1)c1c(F)cccc1OC (single isomer, unassigned) [Example 178]
< 10 | < 10 |  | CCCC(NC(=O)c1ccc(-c2c(Cl)cccc2-c2nc3ccccc3[nH]2)c(C(=O)O)c1)c1ccc(Cl)cc1F (single isomer, unassigned) [Example 182]
< 10 | < 10 |  | CCCC(NC(=O)c1ccc(-c2c(Cl)cccc2-c2nc3ccccc3[nH]2)c(C(=O)O)c1)C1CCCC1 (single isomer, unassigned) [Example 183]
< 10 |  |  | CCCC(NC(=O)c1ccc(-c2c(Cl)cccc2-c2nc3ccccc3[nH]2)c(C(=O)O)c1)c1ccc(Cl)cc1F (single isomer, unassigned) [Example 184]
< 10 | < 10 |  | CCC[C@H](NC(=O)c1ccc(-c2c(Cl)cccc2-c2nc3ccccc3[nH]2)c(C(=O)O)c1)c1cccc(Cl)c1 (single isomer, unassigned) [Example 185]
< 10 | < 10 |  | CCCC(NC(=O)c1ccc(-c2c(Cl)cccc2-c2nc3ccccc3[nH]2)c(C(=O)O)c1)c1cncs1 (single isomer, unassigned) [Example 186]
10 to 100 | 10 to 100 |  | CCCC(NC(=O)c1ccc(-c2c(Cl)cccc2-c2nc3ccccc3[nH]2)c(C(=O)O)c1)c1ccccc1C(F)(F)F (single isomer, unassigned) [Example 189]
10 to 100 | 10 to 100 |  | CCCC(NC(=O)c1ccc(-c2c(Cl)cccc2-c2nc3ccccc3[nH]2)c(C(=O)O)c1)c1ccccc1OC(F)(F)F (single isomer, unassigned) [Example 191]
10 to 100 | 10 to 100 |  | CCCC(NC(=O)c1ccc(-c2c(Cl)cccc2-c2nc3ccccc3[nH]2)c(C(=O)O)c1)c1ccncc1 (single isomer, unassigned) [Example 192]
< 10 | < 10 |  | CCCC(NC(=O)c1ccc(-c2c(Cl)cccc2-c2nc3cc(OC)c(F)cc3[nH]2)c(C(=O)O)c1)C1CCCC1 (single isomer, unassigned) [Example 195]
< 10 | < 10 |  | CCC[C@H](NC(=O)c1ccc(-c2c(Cl)cccc2-c2nc3cc(OC)c(F)cc3[nH]2)c(C(=O)O)c1)c1ccccc1C(F)(F)F (single isomer, unassigned) [Example 196]
< 10 | < 10 |  | CCCC(NC(=O)c1ccc(-c2c(Cl)cccc2-c2nc3cc(OC)c(F)cc3[nH]2)c(C(=O)O)c1)c1ccc(Cl)cc1OC (single isomer, unassigned) [Example 197]
< 10 | < 10 |  | CCCC(NC(=O)c1ccc(-c2c(Cl)cccc2-c2nc3cc(OC)c(F)cc3[nH]2)c(C(=O)O)c1)C1CCCCC1 (single isomer, unassigned) [Example 198]
< 10 | < 10 |  | CCC[C@H](NC(=O)c1ccc(-c2c(Cl)cccc2-c2nc3cc(Cl)c(F)cc3[nH]2)c(C(=O)O)c1)c1ccncc1 (single isomer, unassigned) [Example 199]
< 10 | < 10 |  | CCC[C@H](NC(=O)c1ccc(-c2c(Cl)cccc2-c2nc3cc(Cl)c(F)cc3[nH]2)c(C(=O)O)c1)c1ccc(Cl)cc1OC (single isomer, unassigned) [Example 200]

Reference: patent US11498903B2 (BRISTOL-MYERS SQUIBB COMPANY, priority 2017, dated 2022)
